Results from patent US20220095619A1, “METHOD OF CONTROLLING WEEDS IN A CULTIVATION AREA OF DETERMINATE SOYBEAN” (SUMITOMO CHEMICAL COMPANY, LIMITED, priority 2019, published 2022).

Columns and labels:
[1] = test system: Harosoy/Indeterminate soybean; assay: Example 3 pot test, pre-emergence soil spray: crop injury on soybean variety Harosoy; type: in vivo, Glycine max; conditions: 18 days after treatment
Description: (§1) The evaluation of the herbicidal effect and crop injury is classified into 0 to 100, where the numeral “0” indicates no or little difference in the state of germination or growth of weeds or soybean under test at the time of examination as comparison with untreated weeds or soybean, respectively and the numeral “100” indicates the complete death of weeds or soybean under test or the complete inhibition of their germination or growth of weeds or soybean under test.
(§2) Four varieties of determinate soybean, four varieties of indeterminate soybean, Palmer amaranth, kochia and large crabgrass were sown to a pot filled with a soil. On the next day, a trifludimoxazin spray liquid. (prepared by diluting an emuslfiable concentrate of trifludimoxazin with water) was uniformly sprayed onto the pot at the amount of 200 L, per hectare so that the application rate of trifludimoxazin might be 25 and 50 g per hectare. 18 days after treatment, herbicidal effects on weeds and injury on soybeans were investigated. As a result, the herbicidal effect on each of the three weeds was 100.

Palmer amaranth = assay: Example 3 pot test, pre-emergence soil spray: herbicidal effect on Palmer amaranth; type: in vivo, Amaranthus palmeri; conditions: 25 and 50 g per hectare, 18 days after treatment, 100 = complete death
Description: as §1, §2

[2] = test system: determinate soybean, indeterminate soybean, and semi-determinate soybean; assay: Example 2 pot test, spray one day before soybean sowing: injury on soybeans; type: in vivo, Glycine max; conditions: 25 or 50 g per hectare; applied one day before sowing soybeans; 21 days after sowing soybeans
Description: as §1
(§3) A pot is filled with a soil, and then Palmer amaranth, waterhemp, kochia, common ragweed and marestail are sown thereto. On the same day, trifludimoxazin spray liquid (prepared by diluting trifludimoxazin formulation (an aqueous suspension concentrate containing 500 g/L of trifludimoxazin) with water) is uniformly applied onto the pot using a sprayer at the amount of 200 L per hectare so that the application rate of trifludimoxazin may be 25 or 50 g per hectare. On the next day, determinate soybean, indeterminate soybean, and semi-determinate soybean are sown. 21 days after sowing soybeans, herbicidal effects and injuries on various soybeans are investigated.

[3] = test system: Williams 82/Indeterminate soybean; assay: Example 3 pot test, pre-emergence soil spray: crop injury on soybean variety Williams 82; type: in vivo, Glycine max; conditions: 18 days after treatment
Description: as §1, §2

[4] = test system: Wild soybean/Indeterminate; assay: Example 3 pot test, pre-emergence soil spray: crop injury on wild soybean; type: in vivo, Glycine soja; conditions: 18 days after treatment
Description: as §1, §2

[5] = test system: palmer amaranth, waterhemp, kochia, common ragweed and marestail; assay: Example 2 pot test, spray on day of weed sowing, before soybean sowing: herbicidal effect on weeds; type: in vivo; conditions: 25 or 50 g per hectare; applied on day of weed sowing; 21 days after sowing soybeans
Description: as §1, §3

kochia = assay: Example 3 pot test, pre-emergence soil spray: herbicidal effect on kochia; type: in vivo, Kochia scoparia; conditions: 25 and 50 g per hectare, 18 days after treatment, 100 = complete death
Description: as §1, §2

[6] = test system: Fukunari/Determinate soybean; assay: Example 3 pot test, pre-emergence soil spray: crop injury on soybean variety Fukunari; type: in vivo, Glycine max; conditions: 18 days after treatment
Description: as §1, §2

[7] = test system: Tambaguro/Determinate soybean; assay: Example 3 pot test, pre-emergence soil spray: crop injury on soybean variety Tambaguro; type: in vivo, Glycine max; conditions: 18 days after treatment, 0 = no or little difference from untreated, 100 = complete death
Description: as §1, §2

[8] = test system: Kurosengoku/Indeterminate soybean; assay: Example 3 pot test, pre-emergence soil spray: crop injury on soybean variety Kurosengoku; type: in vivo, Glycine max; conditions: 18 days after treatment
Description: as §1, §2

[9] = test system: palmer amaranth, waterhemp, kochia, common ragweed and marestail; assay: Example 1 pot test, spray two days after sowing: herbicidal effect on weeds; type: in vivo; conditions: 25 or 50 g per hectare; applied two days after sowing; 21 days after the treatment
Description: as §1
as §3, with “the determinate soybean, indeterminate soybean, semi-determinate soybean, palmer” for “then Palmer”, “Two days later,” for “On the same day,”, “an” for “(an”, “hectare.” for “hectare. On the next day, determinate soybean, indeterminate soybean, and semi-determinate soybean are sown.”, “the treatment,” for “sowing soybeans,”

[10] = test system: determinate soybean, indeterminate soybean, semi-determinate soybean; assay: Example 1 pot test, spray two days after sowing: injury on soybeans; type: in vivo, Glycine max; conditions: 25 or 50 g per hectare; applied two days after sowing; 21 days after the treatment
Description: as §1
as §3, with “the determinate soybean, indeterminate soybean, semi-determinate soybean, palmer” for “then Palmer”, “Two days later,” for “On the same day,”, “an” for “(an”, “hectare.” for “hectare. On the next day, determinate soybean, indeterminate soybean, and semi-determinate soybean are sown.”, “the treatment,” for “sowing soybeans,”

[11] = test system: Sachiyutaka/Determinate soybean; assay: Example 3 pot test, pre-emergence soil spray: crop injury on soybean variety Sachiyutaka; type: in vivo, Glycine max; conditions: 18 days after treatment
Description: as §1, §2

large crabgrass = assay: Example 3 pot test, pre-emergence soil spray: herbicidal effect on large crabgrass; type: in vivo, Digitaria sanguinalis; conditions: 25 and 50 g per hectare, 18 days after treatment, 100 = complete death
Description: as §1, §2

[12] = test system: Toyomusume/Determinate soybean; assay: Example 3 pot test, pre-emergence soil spray: crop injury on soybean variety Toyomusume; type: in vivo, Glycine max; conditions: 18 days after treatment
Description: as §1, §2

C#CCN1C(=O)C(F)(F)Oc2cc(F)c(-n3c(=O)n(C)c(=S)n(C)c3=O)cc21 [trifludimoxazin]
injury on soybeans (0 to 100 scale) ([1]; 25 g/hectare): 30 | injury on soybeans (0 to 100 scale) ([1]; 50 g/hectare): 50 | herbicidal effect (0 to 100 scale) (Palmer amaranth): 100 | injuries on various soybeans (comparison of growth habits) [2]: injury on determinate soybean is less than those on indeterminate soybean and semi-determinate soybean | injury on soybeans (0 to 100 scale) ([3]; 25 g/hectare): 40 | injury on soybeans (0 to 100 scale) ([3]; 50 g/hectare): 80 | injury on soybeans (0 to 100 scale) ([4]; 25 g/hectare): 100 | injury on soybeans (0 to 100 scale) ([4]; 50 g/hectare): 100 | herbicidal effects on weeds [5]: High effects on all weeds | herbicidal effect (0 to 100 scale) (kochia): 100 | injury on soybeans (0 to 100 scale) ([6]; 25 g/hectare): 0 | injury on soybeans (0 to 100 scale) ([6]; 50 g/hectare): 0 | injury on soybeans (0 to 100 scale) ([7]; 25 g/hectare): 0 | injury on soybeans (0 to 100 scale) ([7]; 50 g/hectare): 10 | injury on soybeans (0 to 100 scale) ([8]; 25 g/hectare): 30 | injury on soybeans (0 to 100 scale) ([8]; 50 g/hectare): 60 | herbicidal effects on weeds [9]: High herbicidal effects on all weeds | injuries on various soybeans (comparison of growth habits) [10]: injury on determinate soybean is less than those on indeterminate soybean and semi-determinate soybean | injury on soybeans (0 to 100 scale) ([11]; 25 g/hectare): 0 | injury on soybeans (0 to 100 scale) ([11]; 50 g/hectare): 0 | herbicidal effect (0 to 100 scale) (large crabgrass): 100 | injury on soybeans (0 to 100 scale) ([12]; 25 g/hectare): 0 | injury on soybeans (0 to 100 scale) ([12]; 50 g/hectare): 5
